The results in this text go back to patent US10975068B2, “6-aminopyridin-3-yl thiazoles as modulators of RORγT” (Janssen Pharmaceutica NV, priority 2016, dated 2021).

For one assay, the target named is full-length human RORγt (Homo sapiens (Human), UniProt P51449). As to the kind of experiment: RORγt (full-length human) reporter assay, Conditions B or C. It counts as cell-based. The conditions noted are these: for RORγt (FL) Reporter Assay B or C, % inhibition (value marked *): marked *: footnote not given; for IC50: read-out: RORγt (FL) Reporter Assay B or C, IC50; for inhibition at 3 µM: at 3 μM compound concentration, read-out: RORγt (FL) Reporter Assay B or C, % inhibition. The method, boiled down:
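Readout is dual luciferase: firefly (GAL4-driven) normalized to DMSO-only and saturating-reference controls, then to CMV-Renilla. Full-length human RORγt fused to GAL4-DBD was transiently expressed in HEK293T; compound exposure ran overnight (16-20 h) starting 4-6 h after transfection, final FBS 1.3%, DMSO 0.1%.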
For orientation: Reporter assays use an easily measured gene product as a stand-in for the process of interest.

Assay [1] deals with human RORγt ligand binding domain (RORγt LBD) (Homo sapiens (Human), UniProt P51449). As to the kind of experiment: RORγt ThermoFluor® assay (thermal shift binding). The settings on record: read-out: ThermoFluor® Assay, Kd. The method, boiled down:
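Binding was inferred from thermal stabilisation (ΔTm) of the E. coli-expressed RORγt LBD (0.065 mg/mL), monitored by 1,8-ANS (60 μM) emission at 500 nm during a 1 °C/min ramp. Buffer was Hepes 100 mM pH 7.0 with NaCl, GSH and Tween-20.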
(In general: DSF heats the sample and reads unfolding from a dye or from intrinsic fluorescence.)

Where two headings read alike, the source gives them in different places.

human RORγt ligand binding domain (RORγt LBD), sequence (P51449 other isoform, or with tags, fused parts or gaps): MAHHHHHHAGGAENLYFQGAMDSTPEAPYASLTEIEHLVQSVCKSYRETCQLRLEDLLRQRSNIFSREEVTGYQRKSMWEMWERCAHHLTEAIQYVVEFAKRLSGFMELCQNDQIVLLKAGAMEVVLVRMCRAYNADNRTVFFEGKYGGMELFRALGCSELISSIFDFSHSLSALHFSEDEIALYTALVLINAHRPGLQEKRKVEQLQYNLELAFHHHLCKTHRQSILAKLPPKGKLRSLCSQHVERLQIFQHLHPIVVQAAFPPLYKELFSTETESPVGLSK
full-length human RORγt, sequence (P51449 other isoform, or with tags, fused parts or gaps): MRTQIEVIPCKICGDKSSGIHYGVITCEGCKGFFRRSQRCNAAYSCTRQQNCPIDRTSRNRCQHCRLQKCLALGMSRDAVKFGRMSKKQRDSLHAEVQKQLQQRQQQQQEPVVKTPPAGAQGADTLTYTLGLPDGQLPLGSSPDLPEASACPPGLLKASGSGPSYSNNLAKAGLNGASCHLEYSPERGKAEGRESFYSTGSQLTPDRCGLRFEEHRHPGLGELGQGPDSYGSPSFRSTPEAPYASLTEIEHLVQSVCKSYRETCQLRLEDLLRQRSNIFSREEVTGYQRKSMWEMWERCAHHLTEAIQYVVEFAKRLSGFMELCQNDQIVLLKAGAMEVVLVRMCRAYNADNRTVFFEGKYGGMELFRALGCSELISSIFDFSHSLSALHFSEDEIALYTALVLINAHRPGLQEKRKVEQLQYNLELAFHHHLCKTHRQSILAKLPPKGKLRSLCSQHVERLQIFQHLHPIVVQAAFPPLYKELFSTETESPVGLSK

With `C[C@H]1CCCN1C(=O)c1nc(C(=O)N[C@H]2C[C@H](S(C)(=O)=O)C2)sc1-c1cnc(NC2CCCC2)cc1C(F)F` [Example 72, 5-(6-(Cyclopentylamino)-4-(difluoromethyl)pyridin-3-yl)-4-((S)-2-methylpyrrolidine-1-carbonyl)-N-((1r,3r)-3-(methylsulfonyl)cyclobutyl)thiazole-2-carboxamide], on full-length human RORγt (Conditions B or C), the “RORγt (FL) Reporter Assay B or C, % inhibition (value marked *)” value (shortened to “RORγt … % inhibition (value marked *)”) is given as 104* % and the IC50 (usually the concentration at which inhibition is half-maximal) came to 89 nM. Moreover, the Kd (in general, the free concentration of one partner at which half of the binding sites on the other are occupied at equilibrium, for simple one-to-one binding) in assay [1] was found to be 35 nM.

Take `C[C@H](CO)NC(=O)c1nc(C(=O)N2C3CCC2CC3)c(-c2cnc(N[C@@H](C)C(F)(F)F)cc2C(F)F)s1` [Example 226, 4-((1s,4s)-7-Azabicyclo[2.2.1]heptane-7-carbonyl)-5-(4-(difluoromethyl)-6-(((1S)-2,2,2-trifluoro-1-methyl-ethyl)amino)-3-pyridyl)-N-((1R)-2-hydroxy-1-methyl-ethyl)thiazole-2-carboxamide]: at full-length human RORγt (Conditions B or C), the “RORγt … % inhibition (value marked *)” value is recorded as 94* % and the 50% inhibitory concentration (IC50) was found to be 140 nM. Besides, in assay [1], the Kd was found to be 14 nM.

In the case of `C[C@H]1CCCN1C(=O)c1nc(C(=O)NCC(C)(C)O)sc1-c1cnc(NCC2(C(F)(F)F)CC2)cc1C(F)(F)F` [Example 125], on full-length human RORγt (Conditions B or C), the “RORγt … % inhibition (value marked *)” value is listed as 100* % and the IC50 amounted to 59 nM. Besides, the Kd in assay [1] was determined as 2.4 nM.

On to `C[C@H]1CCCN1C(=O)c1nc(C(=O)NC2CCS(=O)(=O)CC2)sc1-c1cnc(NC2(C)CCC2)cc1C(F)F` [Example 324, (S)-5-(4-(Difluoromethyl)-6-((1-methylcyclobutyl)amino)pyridin-3-yl)-N-(1,1-dioxidotetrahydro-2H-thiopyran-4-yl)-4-(2-methylpyrrolidine-1-carbonyl)thiazole-2-carboxamide], for which, on full-length human RORγt, the inhibition (as a rule, the relative decrease from the control value, in per cent) at 3 µM amounted to 93% and the IC50 was found to be 38 nM. Also, the Kd in assay [1] stood at 2.4 nM.

As to `C[C@H]1CCCN1C(=O)c1nc(C(=O)NCC(C)(C)O)sc1-c1cnc(NC(C)(C)C(F)(F)F)cc1C(F)(F)F` [Example 132, (S)—N-(2-Hydroxy-2-methylpropyl)-4-(2-methylpyrrolidine-1-carbonyl)-5-(6-((1,1,1-trifluoro-2-methylpropan-2-yl)amino)-4-(trifluoromethyl)pyridin-3-yl)thiazole-2-carboxamide], at full-length human RORγt (Conditions B or C), the “RORγt … % inhibition (value marked *)” value is 112* % and the IC50 amounted to 14 nM. Besides, the Kd in assay [1] stood at 0.41 nM.

Consider `C[C@@H](CO)NC(=O)c1nc(C(=O)N2CCC[C@@H]2C)c(-c2cnc(NC(C)(C)C)cc2C(F)(F)F)s1` [Example 362, 5-[6-(tert-Butylamino)-4-(trifluoromethyl)-3-pyridyl]-N-[(1S)-2-hydroxy-1-methyl-ethyl]-4-[(2S)-2-methylpyrrolidine-1-carbonyl]thiazole-2-carboxamide], for which, at full-length human RORγt, the inhibition at 3 µM was 99% and the IC50 turned out to be 21 nM. Further, in assay [1], the Kd stood at 4 nM.

`C[C@H]1CCCN1C(=O)c1nc(C(N)=O)sc1-c1cnc(NC(C)(C)C)cc1C(F)(F)F` [Example 308, (S)-5-(6-(tert-Butylamino)-4-(trifluoromethyl)pyridin-3-yl)-4-(2-methylpyrrolidine-1-carbonyl)thiazole-2-carboxamide]: on full-length human RORγt, the inhibition at 3 µM turned out to be 107% and the IC50 was 260 nM. Also, the equilibrium dissociation constant (Kd) in assay [1] is 96 nM.

In the case of `CC[C@H](Nc1cc(C(F)(F)F)c(-c2sc(C(=O)N[C@H]3COC[C@@H]3O)nc2C(=O)N2CCC[C@@H]2C)cn1)C(F)(F)F` [Example 174, N-((3S,4R)-4-Hydroxytetrahydrofuran-3-yl)-4-((2S)-2-methylpyrrolidine-1-carbonyl)-5-(4-(trifluoromethyl)-6-(((1S)-1-(trifluoromethyl)propyl)amino)-3-pyridyl)thiazole-2-carboxamide], on full-length human RORγt (Conditions B or C), the “RORγt … % inhibition (value marked *)” value is 106* % and the IC50 worked out at 25 nM. The dissociation constant (Kd) in assay [1] was 1.4 nM.

As for `C[C@H]1CCCN1C(=O)c1nc(C(=O)N[C@@H]2COC[C@H]2O)sc1-c1cnc(NC(C)(C)C)cc1C(F)F` [Example 402, 5-[6-(tert-Butylamino)-4-(difluoromethyl)-3-pyridyl]-N-[(3R,4S)-4-hydroxytetrahydrofuran-3-yl]-4-[(2S)-2-methylpyrrolidine-1-carbonyl]thiazole-2-carboxamide], on full-length human RORγt, the inhibition at 3 µM turned out to be 99% and the 50% inhibitory concentration (IC50) was found to be 37 nM. The Kd in assay [1] is 5.8 nM.

For `C[C@H](Nc1cc(C(F)F)c(-c2sc(C(=O)N[C@H]3CCC[C@@H]3O)nc2C(=O)N2CC(F)(F)C[C@@H]2C)cn1)C(F)(F)F` [Example 418, 4-[(2S)-4,4-Difluoro-2-methyl-pyrrolidine-1-carbonyl]-5-[4-(difluoromethyl)-6-[[(1S)-2,2,2-trifluoro-1-methyl-ethyl]amino]-3-pyridyl]-N-[(1S,2S)-2-hydroxycyclopentyl]thiazole-2-carboxamide], at full-length human RORγt, the inhibition at 3 µM is 105% and the IC50 came out at 32 nM. Moreover, in assay [1], the Kd is 0.77 nM.

For `CC(C)[C@@H](C)Nc1cc(C(F)F)c(-c2sc(C(=O)NCC(C)(C)O)nc2C(=O)N2CCC[C@@H]2C)cn1` [Example 297, 5-(4-(Difluoromethyl)-6-(((R)-3-methylbutan-2-yl)amino)pyridine-3-yl)-N-(2-hydroxy-2-methylpropyl)-4-((S)-2-methylpyrrolidine-1-carbonyl)thiazole-2-carboxamide], on full-length human RORγt, the inhibition at 3 µM came to 110% and the IC50 was determined as 50 nM. The Kd in assay [1] came to 18 nM.

For the compound `C[C@H]1CC(F)(F)CN1C(=O)c1nc(C(=O)NCC(C)(C)O)sc1-c1cnc(NC2(C)CCC2)cc1C(F)F` [Example 168], on full-length human RORγt (Conditions B or C), the “RORγt … % inhibition (value marked *)” value is 106* % and the IC50 amounted to 200 nM. Moreover, the Kd in assay [1] came to 1.8 nM.

Regarding `C[C@H]1CC(F)(F)CN1C(=O)c1nc(C(=O)NCC(C)(C)O)sc1-c1cnc(NCC2(C(F)(F)F)CCC2)cc1C(F)F` [Example 273, 4-[(2S)-4,4-Difluoro-2-methyl-pyrrolidine-1-carbonyl]-5-[4-(difluoromethyl)-6-[[1-(trifluoromethyl)cyclobutyl]methylamino]-3-pyridyl]-N-(2-hydroxy-2-methyl-propyl)thiazole-2-carboxamide], at full-length human RORγt, the inhibition at 3 µM turned out to be 102% and the IC50 stood at 5.2 nM. Besides, the Kd in assay [1] amounted to 0.51 nM.

With `CC[C@H](Nc1cc(C(F)F)c(-c2sc(C(=O)N[C@H](C)[C@@H](C)O)nc2C(=O)N2CCC[C@@H]2C)cn1)C(F)(F)F` (relative stereo) [Example 216, 5-(4-(Difluoromethyl)-6-(((S)-1,1,1-trifluorobutan-2-yl)amino)pyridin-3-yl)-N-((2R*,3R*)-3-hydroxybutan-2-yl)-4-((S)-2-methylpyrrolidine-1-carbonyl)thiazole-2-carboxamide], on full-length human RORγt (Conditions B or C), the “RORγt … % inhibition (value marked *)” value is 96* % and the IC50 was 9.5 nM. Also, the Kd in assay [1] amounted to 4.1 nM.

Turning to `C[C@H](NC(=O)c1nc(C(=O)N2CCC[C@@H]2C)c(-c2cnc(N[C@H](C)C(F)(F)F)cc2C(F)F)s1)C(C)(C)O` [Example 304, 5-(4-(Difluoromethyl)-6-(((R)-1,1,1-trifluoropropan-2-yl)amino)pyridin-3-yl)-N—((S)-3-hydroxy-3-methylbutan-2-yl)-4-((S)-2-methylpyrrolidine-1-carbonyl)thiazole-2-carboxamide], on full-length human RORγt, the inhibition at 3 µM is 102% and the IC50 was found to be 92 nM. The Kd in assay [1] was 5.1 nM.

Turning to `CC(C)(O)CNC(=O)c1nc(C(=O)N2C3CCC2CC3)c(-c2cnc(NC(C)(C)C)cc2C(F)(F)F)s1` [Example 79, 4-((1s,4s)-7-Azabicyclo[2.2.1]heptane-7-carbonyl)-5-(6-(tert-butylamino)-4-(trifluoromethyl)pyridin-3-yl)-N-(2-hydroxy-2-methylpropyl)thiazole-2-carboxamide], at full-length human RORγt (Conditions B or C), the “RORγt … % inhibition (value marked *)” value is on record as 111* % and the IC50 was 8.3 nM. Also, the Kd in assay [1] was found to be 1.2 nM.

Regarding `C[C@H]1CCCN1C(=O)c1nc(C(=O)NCC(C)(C)O)sc1-c1cnc(NC(C)(C)CC(F)(F)F)cc1C(F)F` [Example 296], at full-length human RORγt, the inhibition at 3 µM came out at 108% and the concentration for half-maximal inhibition (IC50) is 7.1 nM. Also, the Kd in assay [1] turned out to be 0.5 nM.

For the compound `CC[C@@H](Nc1cc(C(F)(F)F)c(-c2sc(C(=O)NCC(C)(C)O)nc2C(=O)N2CCC[C@@H]2C)cn1)C(F)(F)F` [Example 282, N-(2-Hydroxy-2-methyl-propyl)-4-[(2S)-2-methylpyrrolidine-1-carbonyl]-5-[4-(trifluoromethyl)-6-[[(1R)-1-(trifluoromethyl)propyl]amino]-3-pyridyl]thiazole-2-carboxamide], at full-length human RORγt, the inhibition at 3 µM amounted to 109% and the IC50 worked out at 19 nM. For the same compound, the Kd in assay [1] was determined as 1.4 nM.

On to `C[C@H]1CC(F)(F)CN1C(=O)c1nc(C(=O)NC2COCC2O)sc1-c1cnc(NC2(C)CCC2)cc1C(F)(F)F` (stereo partly drawn) [Example 182, 4-((S)-4,4-Difluoro-2-methylpyrrolidine-1-carbonyl)-N-(cis-4-hydroxytetrahydrofuran-3-yl)-5-(6-((1-methylcyclobutyl)amino)-4-(trifluoromethyl)pyridine-3-yl)thiazole-2-carboxamide], for which, at full-length human RORγt (Conditions B or C), the “RORγt … % inhibition (value marked *)” value is 99* % and the IC50 came to 8.1 nM. Also, in assay [1], the Kd came to 0.12 nM.
